Measured values taken from patent US20100298300A1, “TRIAZOLOPYRAZINE COMPOUNDS USEFUL FOR THE TREATMENT OF DEGENERATIVE & INFLAMMATORY DISEASES” (priority 2006, published 2010).

How the values were obtained:
[1] = tested on: MMP1 expression by activated primary synovial fibroblasts; assay: 'MMP assay': MMP1 expression by complex trigger activated synovial fibroblasts (MMP1 ELISA); assay type: cell-based; details: Homo sapiens, Fibroblast; Table 3; RASFs, complex trigger, 48 hrs, MMP1 ELISA
[2] = tested on: TNFα release by human PBMCs; assay: Cytokine release by LPS stimulated human PBMCs (TNFα ELISA); assay type: cell-based; details: PBMC, 24 h, Table 5, LPS 1 μg/mL
Method: For the assay PBMCs are seeded at 2.5E6 cells/mL in 160 μL in 96-well plates (Nunc). Serial dilution of the test compounds are made first in DMSO (Sigma) and then diluted 50-fold in M199 medium (Gibco) containing 1% heat-inactivated FBS. Compounds are further 1/10 diluted in the assay plates to obtain final DMSO concentration of 0.2%. Cells are preincubated with the compounds for 1 hr at 37° C., 5% CO2. Then, cells are stimulated with LPS (Escherichia coli serotype 026:B6, Cat. No. L2654, Sigma) that is added in a volume of 20 μL to a final concentration of 1 μg/mL and cells are further cultured for 24 hr. The plates are centrifuged and the supernatant is collected and stored at −80° C. until analysis of appropriate dilutions in ELISAs.
After 4 hr incubation at RT, blocking buffer is removed and plates are washed once with PBST (1×PBS with 0.05% Tween-20 (Sigma)). Then, 40 μL of sample is transferred to the ELISA plates and plates are incubated at 4° C. […] After 2 h of incubation at RT, plates are washed as described above and 35 μL/well of a 1/2000 dilution of streptavidin-HRP conjugate (Cat. No. SNN2004, Biosource) in buffer D is added. After 45 min, plates are washed as described above and incubated for 5 min with 50 μL/well BM Chemiluminescence ELISA Substrate POD (Roche). Readout is performed on the Luminoscan Ascent Luminometer (Labsystems) with an integration time of 100 msec delivering raw data (RLU: relative luminescence units). The following controls are included in the experiments, a maximal signal control, in which the cells are activated by LPS but only the 0.2% DMSO vehicle (and thus no compound) is added. […] A minimal signal control is also included in these experiments. Here, cells are not triggered. […] Where compounds are tested at 8 concentrations (1/3 serial dilution), EC50-values can be calculated by curve fitting of the means of the PIN data achieved for a compound at each test concentration.

MAPKAPK5 = target: T1, MAPKAPK5 (Homo sapiens, UniProt Q8IW41); assay: MAPKAP-K5 assay (FlashPlate kinase assay)
T1 sequence (Q8IW41 1-471 isoform Q8IW41-2): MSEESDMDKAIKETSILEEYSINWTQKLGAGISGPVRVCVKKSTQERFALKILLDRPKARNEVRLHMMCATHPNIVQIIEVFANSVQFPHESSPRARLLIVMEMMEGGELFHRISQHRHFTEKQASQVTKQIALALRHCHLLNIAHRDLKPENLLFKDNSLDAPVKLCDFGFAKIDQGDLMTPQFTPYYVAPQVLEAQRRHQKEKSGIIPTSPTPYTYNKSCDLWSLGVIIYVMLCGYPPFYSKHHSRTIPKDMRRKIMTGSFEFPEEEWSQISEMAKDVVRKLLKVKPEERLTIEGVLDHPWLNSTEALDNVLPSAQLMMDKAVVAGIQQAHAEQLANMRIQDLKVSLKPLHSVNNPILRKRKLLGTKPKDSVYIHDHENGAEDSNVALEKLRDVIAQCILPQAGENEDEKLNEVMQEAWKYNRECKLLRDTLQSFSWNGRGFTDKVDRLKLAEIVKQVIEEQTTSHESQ
Method: MAPKAP-K5 reactions are performed in FlashPlate format using 0.1 or 0.2 μCi 33P-ATP; 0.6 μM ATP; 1 mU MAPKAP-K5; 3 μM MAPKAP-K5 peptide substrate, incubated at room temperature for 30 minutes.
The MAPKAP-K5 kinase reaction is performed in a 384 well polypropylene plate (Matrix Technologies) and then transferred to a streptavidin-coated 384 well flashplate (Perkin-Elmer).
To wells containing 2 μL test compound or standard inhibitor, 13 μL Enzyme mix or diluent are added using a Hydra (Robbins Scientific).
Reactions are started by addition of 10 μL of [2,5×] substrate cocktail using a Multidrop (Thermo-Labsystems), to give final concentrations in the assay of:
Plates are incubated at room temperature for 30 minutes.
Reactions are terminated by the addition of 25 μL EDTA (50 mM) to each well using a Micro-fill (Biotek).
Reactions are transferred to a streptavidin-coated flashplate using a Zymark robotic system. Plates are incubated for 60 minutes at room temperature.
All wells are washed 3 times with 100 μl phosphate buffered saline using a Tecan plate washer.
Radioactivity is determined by scintillation counting of the flashplate (empty wells) on a Packard TopCount.
Enzyme Mix: • Enzyme • 50 mM Tris Hcl (pH 7.5) • 0.1 mM EGTA • 2 mM DTT • 1 mg/mL BSA
Reaction Buffer: • 50 mM Tris Hcl (pH 7.5) • 0.1 mM EGTA • 10 mM Magnesium acetate • 2 mM DTT

| SMILES | IC50 (MAPKAPK5) | EC50 [1] | EC50 [2] |
| --- | --- | --- | --- |
| NC(=O)c1cc(-c2cnc(Nc3ccc(C4CCN(CC(F)(F)F)CC4)cc3)c3ncnn23)cs1 [Compound 63, 4-(8-{4-[1-(2,2,2-Trifluoroethyl)piperidin-4-yl]phenylamino}-[1,2,4]triazolo[1,5-a]pyrazin-5-yl)thiophene-2-carboxylic acid amide] | > 1 µM | 0.101 to 0.5 µM | > 1 µM |
| c1nc2c(Nc3ccc(N4CCN(CC5CC5)CC4)nc3)ncc(-c3cn[nH]c3)n2n1 [Compound 42, [6-(4-[Cyclopropylmethyl]piperazin-1-yl)pyridin-3-yl]-[5-(1H-pyrazol-4-yl)-[1,2,4]triazolo[1,5-a]pyrazin-8-yl]amine] | > 1 µM | > 1 µM | > 1 µM |
| NC(=O)c1ccc(-c2cnc(Nc3ccc(N4CCOCC4)cc3)c3ncnn23)cc1F [Compound 11] | > 1 µM | 0.101 to 0.5 µM | > 1 µM |
| CC(C)N1CCN(c2ccc(Nc3ncc(-c4csc5ccccc45)n4ncnc34)cc2)CC1 [Compound 49] | > 1 µM | > 1 µM | > 1 µM |
| CC(C)N1CCN(c2ccc(Nc3ncc(-c4ccnc(CO)c4)n4ncnc34)cn2)CC1 [Compound 90, (4-{8-[6-(4-Isopropylpiperazin-1-yl)pyridin-3-ylamino]-[1,2,4]triazolo[1,5-a]pyrazin-5-yl}pyridin-2-yl)methanol] | > 1 µM | > 1 µM | > 1 µM |
| FC(F)(F)c1cc(Nc2ncc(-c3cn[nH]c3)n3ncnc23)ccc1N1CCOCC1 [Compound 25] | > 1 µM | > 1 µM | > 1 µM |
| NC(=O)c1ccc(-c2cnc(Nc3ccc(N4CCOCC4)cc3)c3ncnn23)cc1 [Compound 5] | > 1 µM | 0.101 to 0.5 µM | > 1 µM |
| Clc1cc(N2CCOCC2)ccc1Nc1ncc(-c2cn[nH]c2)n2ncnc12 [Compound 68] | > 1 µM | > 1 µM | > 1 µM |
| CN1CCN(c2ccc(Nc3ncc(-c4cn[nH]c4)n4ncnc34)cc2)CC1 [Compound 2] | > 1 µM | > 1 µM | > 1 µM |
| c1ccc2c(-c3cnc(Nc4ccc(N5CCOCC5)cc4)c4ncnn34)csc2c1 [Compound 48, (5-Benzo[b]thiophen-3-yl-[1,2,4]triazolo[1,5-a]pyrazin-8-yl)-(4-morpholin-4-ylphenyl)amine] | > 1 µM | 0.101 to 0.5 µM | > 1 µM |
| CN1CCN(c2ccc(Nc3ncc(-c4cc[nH]c(=O)c4)n4ncnc34)cc2)CC1 [Compound 4, 4-(8-(4-(4-methylpiperazin-1-yl)phenylamino)-[1,2,4]triazolo[1,5a]pyrazin-5-yl)pyridin-2(1H)-one] | > 1 µM | > 1 µM | > 1 µM |
| CNC(=O)c1nc(-c2cnc(Nc3ccc(N4CCOCC4)cc3)c3ncnn23)cs1 [Compound 73, 4-[8-(4-Morpholin-4-yl-phenylamino)-[1,2,4]triazolo[1,5-a]pyrazin-5-yl]-thiazole-2-carboxylic acid methylamide] | > 1 µM | > 1 µM | > 1 µM |
| c1nc2c(Nc3ccc(N4CCOCC4)cc3)ncc(-c3ccc4ncsc4c3)n2n1 [Compound 66] | > 1 µM | 0.501 to 1 µM | > 1 µM |
| FC(F)(F)CN1CCC(c2ccc(Nc3ncc(-c4cn[nH]c4)n4ncnc34)cc2)CC1 [Compound 64] | > 1 µM | > 1 µM | > 1 µM |
| c1nc2c(Nc3ccc(N4CCN(C5CC5)CC4)nc3)ncc(-c3cn[nH]c3)n2n1 [Compound 60, [6-(4-Cyclopropylpiperazin-1-yl)pyridin-3-yl]-[5-(1H-pyrazol-4-yl)-[1,2,4]triazolo[1,5-a]pyrazin-8-yl]amine] | > 1 µM | > 1 µM | > 1 µM |
| c1nc2c(Nc3ccc(N4CCOCC4)cc3)ncc(-c3ccc4[nH]ncc4c3)n2n1 [Compound 104] | > 1 µM | > 1 µM | > 1 µM |
| CC(C)N1CCN(c2ccc(Nc3ncc(-c4ccnc(CF)c4)n4ncnc34)cc2)CC1 [Compound 91] | > 1 µM | > 1 µM | > 1 µM |
| O=C1NCCc2cc(-c3cnc(Nc4ccc(N5CCOCC5)cc4)c4ncnn34)ccc21 [Compound 35, 6-(8-(4-Morpholinophenylamino)-[1,2,4]triazolo[1,5-a]pyrazin-5-yl)-3,4-dihydroisoquinolin-1(2H)-one] | > 1 µM | 0.101 to 0.5 µM | > 1 µM |

Continued, in another order:

| IC50 (MAPKAPK5) | SMILES | EC50 [1] | EC50 [2] |
| --- | --- | --- | --- |
| > 1 µM | c1nc2c(Nc3ccc(N4CCOCC4)nc3)ncc(-c3cn[nH]c3)n2n1 [Compound 41, (6-[Morpholin-4-yl]pyridin-3-yl)-[5-(1H-pyrazol-4-yl)-[1,2,4]triazolo[1,5-a]pyrazin-8-yl]amine] | > 1 µM | > 1 µM |
| 0.101 to 0.5 µM | CC(C)N1CCN(c2ncc(Nc3ncc(-c4ccc5c(c4)CNC5=O)n4ncnc34)cn2)CC1 [Compound 101] | > 1 µM | > 1 µM |
| 0.101 to 0.5 µM | C[C@@H]1CN(c2ccc(Nc3ncc(-c4csc(C(N)=O)c4)n4ncnc34)cc2)[C@@H](C)CN1C [Compound 32] | 0.501 to 1 µM | 0.501 to 1 µM |
| 0.501 to 1 µM | C[C@@H]1CN(c2ccc(Nc3ncc(-c4csc(C(N)=O)c4)n4ncnc34)cc2)C[C@H](C)O1 [Compound 24] | 0.101 to 0.5 µM | > 1 µM |
| 0.101 to 0.5 µM | NC(=O)c1cc(-c2cnc(Nc3ccc(N4CCN(CC(F)(F)F)CC4)cc3)c3ncnn23)cs1 [Compound 57, 4-(8-{4-[4-(2,2,2-Trifluoroethyl)piperazin-1-yl]-phenylamino}-[1,2,4]triazolo[1,5-a]pyrazin-5-yl)thiophene-2-carboxylic acid amide] | 0.101 to 0.5 µM | > 1 µM |
| 0.501 to 1 µM | CC(C)N1CCN(c2ccc(Nc3ncc(-c4cn[nH]c4)n4ncnc34)cc2)CC1 [Compound 38] | > 1 µM | > 1 µM |
| 0.101 to 0.5 µM | CC(C)N1CCN(c2ccc(Nc3ncc(-c4ccc5c(c4)CNC5=O)n4ncnc34)cc2C(F)(F)F)CC1 [Compound 170, 5-{8-[4-(4-Isopropylpiperazin-1-yl)-3-trifluoromethylphenylamino]-[1,2,4]triazolo[1,5-a]pyrazin-5-yl}-2,3-dihydroisoindol-1-one] | > 1 µM | > 1 µM |
| 0.001 to 0.1 µM | CC(C)N1CCN(c2ccc(Nc3ncc(-c4ccc5c(c4)CNC5=O)n4ncnc34)cc2)CC1 [Compound 36, 5-(8-(4-(4-Isopropylpiperazin-1-yl)phenylamino)-[1,2,4]triazolo[1,5-a]pyrazin-5-yl)isoindolin-1-one] | 0.101 to 0.5 µM | > 1 µM |
| 0.001 to 0.1 µM | NC(=O)c1cc(-c2cnc(Nc3ccc(N4CCOCC4)nc3)c3ncnn23)co1 [Compound 94] | > 1 µM | > 1 µM |
| 0.101 to 0.5 µM | NC(=O)c1cc(-c2cnc(Nc3ccc(N4CCN(CC5CC5)CC4)nc3)c3ncnn23)cs1 [Compound 54, 4-{8-[6-(4-[Cyclopropylmethyl]piperazin-1-yl)-pyridin-3-ylamino]-[1,2,4]triazolo[1,5-a]pyrazin-5-yl}thiophene-2-carboxylic acid amide] | 0.101 to 0.5 µM | 0.501 to 1 µM |
